The text below walks through data of BindingDB's records for doi:10.7270/Q2J67FB5 (Nmmlsc, 2007).

The assay addresses T1, fMet-Leu-Phe receptor (Homo sapiens, UniProt P21462).
T1 sequence (P21462 whole entry): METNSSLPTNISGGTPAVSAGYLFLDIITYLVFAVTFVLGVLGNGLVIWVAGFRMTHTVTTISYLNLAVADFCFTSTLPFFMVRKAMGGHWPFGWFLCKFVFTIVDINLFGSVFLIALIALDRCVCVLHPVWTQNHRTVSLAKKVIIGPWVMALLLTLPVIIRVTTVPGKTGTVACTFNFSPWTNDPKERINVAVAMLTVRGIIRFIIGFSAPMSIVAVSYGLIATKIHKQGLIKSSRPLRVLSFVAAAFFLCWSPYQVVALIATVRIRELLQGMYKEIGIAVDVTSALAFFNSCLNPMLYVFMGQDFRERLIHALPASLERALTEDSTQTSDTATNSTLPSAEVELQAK
Kind of assay: formyl peptide receptor binders – dose response (AID 519).
The compound `COc1ccc(OC)c(C2C(C(=O)c3ccco3)C(=O)C(=O)N2CCCN2CCOCC2)c1` (stereo not given) [2-(2,5-dimethoxyphenyl)-3-(furan-2-carbonyl)-4-hydroxy-1-(3-morpholin-4-ylpropyl)-2H-pyrrol-5-one] came in with an IC50 of 26.4 µM.
In the case of `COc1ccc(C2C(C(=O)c3ccco3)C(=O)C(=O)N2Cc2cccnc2)cc1OC` (stereo not given) [2-(3,4-dimethoxyphenyl)-3-(furan-2-carbonyl)-4-hydroxy-1-(pyridin-3-ylmethyl)-2H-pyrrol-5-one] it was above 66.7 µM.
The value for `COc1cccc(OC)c1C(=O)C(C#N)c1nc2ccccc2[nH]1` (stereo not given) [SMR000024183] was above 66.7 µM.
The value for `CCOc1ccc(C2C(C(=O)c3cccs3)C(=O)C(=O)N2CCCn2ccnc2)cc1` (stereo not given) [2-(4-ethoxyphenyl)-1-(3-imidazol-1-ylpropyl)-4-oxidanyl-3-thiophen-2-ylcarbonyl-2H-pyrrol-5-one] was 57.1 µM; that for `COCc1cc(C2C(C(=O)c3ccco3)C(=O)C(=O)N2CCOCCO)ccc1O` (stereo not given) [3-(furan-2-carbonyl)-4-hydroxy-1-[2-(2-hydroxyethoxy)ethyl]-2-[4-hydroxy-3-(methoxymethyl)phenyl]-2H-pyrrol-5-one] was 29.7 µM; that for `Cc1cc(N2C(=O)C(=O)C(C(=O)c3ccc(F)cc3)C2c2cccc(Br)c2)no1` (stereo not given) [(4E)-5-(3-bromophenyl)-4-[(4-fluorophenyl)-hydroxy-methylene]-1-(5-methylisoxazol-3-yl)pyrrolidine-2,3-quinone] was above 66.7 µM.
As to `COc1ccccc1C1C(C(=O)c2ccccc2)C(=O)C(=O)N1CC(C)C` (stereo not given) [(4Z)-4-[hydroxy(phenyl)methylene]-1-isobutyl-5-(2-methoxyphenyl)pyrrolidine-2,3-quinone], inhibition was half-maximal at 5.5 µM (IC50).
The value for `COc1cccc(C(=O)C2C(=O)C(=O)N(Cc3cccnc3)C2c2ccco2)c1` (stereo not given) [(4Z)-5-(2-furanyl)-4-[hydroxy-(3-methoxyphenyl)methylidene]-1-(3-pyridinylmethyl)pyrrolidine-2,3-dione] was above 66.7 µM; that for `C=CCOc1ccc(C2C(C(=O)c3ccco3)C(=O)C(=O)N2Cc2cccnc2)cc1` (stereo not given) [3-(furan-2-carbonyl)-4-hydroxy-2-(4-prop-2-enoxyphenyl)-1-(pyridin-3-ylmethyl)-2H-pyrrol-5-one] was 9.7 µM; that for `COc1ccc(C(=O)C2C(=O)C(=O)N(c3nc(C)c(C)s3)C2c2ccco2)cc1` (stereo not given) [(4Z)-1-(4,5-dimethyl-1,3-thiazol-2-yl)-5-(furan-2-yl)-4-[(4-methoxyphenyl)-oxidanyl-methylidene]pyrrolidine-2,3-dione] was above 66.7 µM.
Turning to `Cc1ccc(C(=O)C2C(=O)C(=O)N(CCN3CCOCC3)C2c2cccnc2)cc1` (stereo not given) [(4Z)-4-[(4-methylphenyl)-oxidanyl-methylidene]-1-(2-morpholin-4-ylethyl)-5-pyridin-3-yl-pyrrolidine-2,3-dione], the IC50 was above 66.7 µM.
`Cc1ccc(C(=O)C2C(=O)C(=O)N(Cc3ccccc3)C2c2cccnc2)o1` (stereo not given) [1-benzyl-3-hydroxy-4-[(5-methylfuran-2-yl)carbonyl]-5-(pyridin-3-yl)-2,5-dihydro-1H-pyrrol-2-one]: the IC50 was above 66.7 µM.
In the case of `COc1ccccc1C1C(C(=O)c2ccccc2)C(=O)C(=O)N1CCO` (stereo not given) [(4Z)-1-(2-hydroxyethyl)-4-[hydroxy(phenyl)methylene]-5-(2-methoxyphenyl)pyrrolidine-2,3-quinone] it was 19.7 µM.
The value for `O=C1C(=O)N(Cc2ccccc2)C(c2ccco2)C1C(=O)c1ccco1` (stereo not given) [1-Benzyl-4-(furan-2-carbonyl)-5-furan-2-yl-3-hydroxy-1,5-dihydro-pyrrol-2-one] was 12.4 µM.
As for `C=CCOc1ccc(C2C(C(=O)c3cccs3)C(=O)C(=O)N2c2nnc(C)s2)cc1` (stereo not given) [1-(5-methyl-1,3,4-thiadiazol-2-yl)-4-oxidanyl-2-(4-prop-2-enoxyphenyl)-3-thiophen-2-ylcarbonyl-2H-pyrrol-5-one], half-maximal inhibition (IC50) required 40.5 µM.
In the case of `CCN(CC)c1ccc(C=NC(C#N)C(=N)C#N)cc1` (stereo not given) [SMR000023871] it was above 66.7 µM; in that of `O=C1C(=O)N(c2ncccn2)C(c2ccc(Cl)c(Cl)c2)C1C(=O)c1ccco1` (stereo not given) [2-(3,4-dichlorophenyl)-3-(furan-2-carbonyl)-4-hydroxy-1-pyrimidin-2-yl-2H-pyrrol-5-one], above 66.7 µM.
In turn, `CSCCC1c2c(-c3cccs3)n[nH]c2OC(=N)C1C#N` (stereo not given) [6-azanyl-4-(2-methylsulfanylethyl)-3-thiophen-2-yl-2,4-dihydropyrano[2,3-c]pyrazole-5-carbonitrile] gave a concentration for half-maximal inhibition (IC50) above 66.7 µM.
In the case of `C=CCN1C(=O)C2(c3ccccc31)C(C(=O)c1ccc3c(c1)OCCO3)C(=O)C(=O)N2CCCOC` (stereo not given) [(4'E)-1-allyl-4'-[2,3-dihydro-1,4-benzodioxin-6-yl(hydroxy)methylene]-1'-(3-methoxypropyl)spiro[indoline-3,5'-pyrrolidine]-2,2',3'-trione] it was above 66.7 µM; in that of `CCOc1ccc(C(=O)C2C(=O)C(=O)N(c3nc(C)c(C)s3)C2c2ccco2)cc1` (stereo not given) [(4Z)-1-(4,5-dimethyl-1,3-thiazol-2-yl)-4-[(4-ethoxyphenyl)-hydroxymethylidene]-5-(furan-2-yl)pyrrolidine-2,3-dione], 57.7 µM; in that of `CCOc1ccc(C2C(C(=O)c3ccco3)C(=O)C(=O)N2Cc2cccnc2)cc1` (stereo not given) [2-(4-ethoxyphenyl)-3-(furan-2-carbonyl)-4-hydroxy-1-(pyridin-3-ylmethyl)-2H-pyrrol-5-one], 15.3 µM.
In the case of `O=C1Nc2ccccc2/C1=C1/SC(=S)N(CC2CCCO2)C1=O` (stereo not given) [(5Z)-5-(2-ketoindolin-3-ylidene)-3-(tetrahydrofurfuryl)-2-thioxo-thiazolidin-4-one] it was above 66.7 µM.
In the case of `COc1ccc(C2C(C(=O)c3ccccc3)C(=O)C(=O)N2CC(C)O)c(OC)c1` (stereo not given) [(4Z)-5-(2,4-dimethoxyphenyl)-4-[hydroxy(phenyl)methylene]-1-(2-hydroxypropyl)pyrrolidine-2,3-quinone] it was 38.6 µM; in that of `O=C1C(=O)N(CCc2ccccc2)C(c2cccnc2)C1C(=O)c1ccco1` (stereo not given) [3-(furan-2-carbonyl)-4-hydroxy-1-(2-phenylethyl)-2-pyridin-3-yl-2H-pyrrol-5-one], above 66.7 µM.
`Cc1ccsc1C1C2C(=O)CC(C)(C)CC2=Nc2ncnn21` (stereo not given) [6,6-dimethyl-9-(3-methyl-2-thienyl)-1,5,7,9-tetrahydro-[1,2,4]triazolo[5,1-b]quinazolin-8-one] yielded an IC50 of 12.5 µM.

One may read the IC50 as the midpoint of a concentration-inhibition curve.
